According to US20150306108A1, “COMPOSITIONS OF ALDH1A1 INHIBITORS AND METHODS OF USE IN TREATING CANCER” (Indiana University Research & Technology Corporation, priority 2014, published 2015):

How the values were obtained:
Assay type in all cases: biochemical
Conditions in all cases: 20 μM compound
ALDH4A1 = target: T1, ALDH4A1 (Homo sapiens, UniProt P30038); assay: ALDH4A1 selectivity assay
T1 construct: The full length cDNA for human ALDH4A1 and ALDH5A1 were generously provided by Dania Mochly-Rosen; inferred from nickel-NTA purification and the pET-28a plasmid; made in house; host or cells: bacterial host inferred from the pET-28a plasmid
T1 sequence (P30038 25-563): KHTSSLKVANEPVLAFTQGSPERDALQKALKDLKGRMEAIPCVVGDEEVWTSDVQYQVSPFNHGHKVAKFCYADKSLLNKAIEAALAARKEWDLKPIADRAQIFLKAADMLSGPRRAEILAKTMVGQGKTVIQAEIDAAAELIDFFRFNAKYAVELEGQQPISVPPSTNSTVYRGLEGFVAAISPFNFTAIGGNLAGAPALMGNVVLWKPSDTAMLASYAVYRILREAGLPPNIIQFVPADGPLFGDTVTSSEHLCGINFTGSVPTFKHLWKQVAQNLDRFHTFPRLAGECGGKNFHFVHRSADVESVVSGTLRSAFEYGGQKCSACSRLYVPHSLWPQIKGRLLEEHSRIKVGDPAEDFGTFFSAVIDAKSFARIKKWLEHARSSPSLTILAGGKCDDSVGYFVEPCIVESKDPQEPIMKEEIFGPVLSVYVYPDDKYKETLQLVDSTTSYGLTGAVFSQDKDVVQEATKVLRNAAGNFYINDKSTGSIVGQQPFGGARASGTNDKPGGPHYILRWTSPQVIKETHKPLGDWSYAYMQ
Source text: (§1) ALDH1A1, ALDH1A2, ALDH1A3, ALDH1B1, ALDH2, and ALDH3A1 were produced and purified as previously described. The ALDH1A1 protein used for the ALDH1A1-CM026 crystal contained an Asn-to-Ser SNP at residue 121. Unless where noted otherwise, ALDH1A1 WT protein was used for all aldehyde oxidation assays and for the ALDH1A1-CM053 structure. The full length cDNA for human ALDH4A1 and ALDH5A1 were generously provided by Dania Mochly-Rosen. ALDH4A1 was subcloned into the pET-28a expression plasmid and ALDH5A1 was in pTrcHis-Topo. The carboxyl terminal ALDH domain of rat ALDH1L1 was generously provided by Sergey Krupenko in the pRSET expression plasmid. ALDH1L1, ALDH4A1, and ALDH5A1 were expressed and purified as previously described for ALDH3A1^36 with the following modifications: 1) for ALDH1L1 and ALDH5A1 the medium contained 100 μg/mL ampicillin, 2) cells were lysed via 3 passages through a microfluidizer (DivTech Equipment), and 3) a single passage on a nickel-NTA column was used for purification, without the second Q-sepharose column used to purify ALDH3A1. Purified enzymes used for kinetics were stored at −80° C. ALDH1A1 used for crystallization was stored at −20° C. in a 50% (v/v) solution with glycerol and dialyzed against 10 mM Na^+-ACES pH 6.6 and 1 mM dithiothreitol at 4° C.

ALDH5A1 = target: T2, ALDH5A1 (Homo sapiens, UniProt P51649); assay: ALDH5A1 selectivity assay
T2 construct: The full length cDNA for human ALDH4A1 and ALDH5A1 were generously provided by Dania Mochly-Rosen; inferred from nickel-NTA purification and the pTrcHis-Topo plasmid; made in house; host or cells: bacterial host inferred from the pTrcHis-Topo plasmid and ampicillin medium
T2 sequence (P51649 48-535): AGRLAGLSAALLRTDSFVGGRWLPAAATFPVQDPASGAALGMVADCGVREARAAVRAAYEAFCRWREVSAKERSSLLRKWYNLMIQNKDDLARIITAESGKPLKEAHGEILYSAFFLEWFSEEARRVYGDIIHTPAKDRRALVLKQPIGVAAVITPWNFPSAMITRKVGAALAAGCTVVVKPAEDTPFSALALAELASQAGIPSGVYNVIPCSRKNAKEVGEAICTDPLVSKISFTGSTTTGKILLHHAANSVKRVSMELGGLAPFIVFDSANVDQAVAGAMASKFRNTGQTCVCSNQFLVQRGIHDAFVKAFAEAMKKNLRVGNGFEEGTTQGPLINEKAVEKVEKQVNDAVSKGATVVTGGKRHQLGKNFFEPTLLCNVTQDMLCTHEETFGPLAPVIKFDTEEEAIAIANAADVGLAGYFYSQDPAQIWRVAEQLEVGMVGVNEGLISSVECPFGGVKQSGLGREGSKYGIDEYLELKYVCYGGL
Source text: as §1

[1] = target: T3, carboxyl-terminal ALDH domain of rat ALDH1L1 (Rattus norvegicus, UniProt P28037); assay: ALDH1L1 selectivity assay
T3 construct: The carboxyl terminal ALDH domain of rat ALDH1L1 was generously provided by Sergey Krupenko in the pRSET expression plasmid; inferred from nickel-NTA purification and the pRSET plasmid; made in house; host or cells: bacterial host inferred from the pRSET plasmid and ampicillin medium
T3 sequence (P28037 417-902 limits assumed): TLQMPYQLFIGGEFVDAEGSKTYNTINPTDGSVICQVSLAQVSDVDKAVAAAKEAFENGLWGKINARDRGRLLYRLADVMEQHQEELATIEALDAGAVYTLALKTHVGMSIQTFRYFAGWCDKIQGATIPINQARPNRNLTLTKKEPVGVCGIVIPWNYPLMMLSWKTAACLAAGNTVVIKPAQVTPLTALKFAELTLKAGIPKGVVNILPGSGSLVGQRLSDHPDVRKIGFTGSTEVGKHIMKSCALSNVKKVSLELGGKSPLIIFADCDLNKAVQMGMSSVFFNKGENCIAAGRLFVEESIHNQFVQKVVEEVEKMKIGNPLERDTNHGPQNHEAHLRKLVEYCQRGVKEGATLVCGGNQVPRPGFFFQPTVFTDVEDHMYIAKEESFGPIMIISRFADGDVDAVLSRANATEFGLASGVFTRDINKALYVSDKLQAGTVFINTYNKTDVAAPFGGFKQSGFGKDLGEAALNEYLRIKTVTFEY
Source text: as §1

CC(C)CCn1c(CN2CCN(C(=O)c3ccco3)CC2)nc2c1c(=O)n(C)c(=O)n2C [CM026]
no effect: effect on ALDH4A1 (ALDH4A1) | effect on ALDH5A1 (ALDH5A1) | effect on carboxyl-terminal ALDH domain of rat ALDH1L1 [1]
